Source: patent US20060210528A1, “Therapy for tropical diseases” (Aspire Biotech, Inc., priority 2001, published 2006)

Tested on: plantar warts
Assay: Treatment of plantar warts on a patient's feet with an in situ polymeric film versus freezing
Format: in vivo, human
Protocol: The following examples illustrate how the methods of this invention could be used.
A patient presents to a dermatologist with two similar plantar warts on the soles of their left and right feet. The wart on the right foot is treated by freezing with liquid nitrogen.

## N#N [liquid nitrogen]
Plantar wart on sole of foot
  pain on treated foot: makes walking on the foot painful for several days
Plantar wart on sole of foot, film re-applied every 3-4 days
  time until wart resolves: 3 weeks
Plantar wart, film treatment continued two weeks after resolution
  return of wart after resolution: has returned after two months
